The test system of the test is anaesthetized naïve female rats. Briefly: Cystometry on anaesthetized naïve rats (suppression of rhythmic spontaneous bladder contractions). In kind it is in vivo, rat. Particulars: i.v., cumulative administration; mean of the lowest dose of 3 independent experiments at which contractions are first absent over a period of 10 min. How it is done:
The cystometric investigation of naïve female rats was carried out by the method of Kimura et al. (Kimura et al., 1996, Int. J. Urol. 3:218-227). The abdomen of anaesthetized ventilated rats is opened up and the ureter is tied off. The urine is drained from the kidneys. A catheter is inserted into the bladder and fixed. […] After stable starting values are reached, the test substance is administered i.v. in a cumulative manner. An influence on bladder function manifests itself via suppression of spontaneous contractions. The absence of contractions over a period of 10 min is used as an indication of suppression.
A suppression of spontaneous contractions in the rats was measurable with all the substances tested. Table II indicates the mean of the lowest dose of 3 independent experiments at which for the first time contractions are absent over a period of 10 min.
For the compound `CCOC(=O)[C@]1(c2ccccc2)CCC=C[C@H]1N(C)C` (relative stereo) [Tilidine, trans-2-(dimethylamino)-1-phenyl-3-cyclohexene-1-carboxylic acid ethyl ester], the “Lowest dose effective for suppression of contraction” value (shortened to “Lowest dose effective”) is on record as 0.5 (n = 3) mg/kg.
Turning to `COc1ccc2c3c1O[C@H]1[C@@H](O)C=C[C@H]4[C@@H](C2)N(C)CC[C@@]341` [Codeine (phosphate), (5a,6a)-7,8-didehydro-4,5-epoxy-3-methoxy-17-methylmorphinan-6-ol], the “Lowest dose effective” value is 4.7 (n = 3) mg/kg.
As to `CCC1(c2cccc(O)c2)CCCCN(C)C1` (stereo not drawn) [Meptazinol, 3-(3-ethylhexahydro-1-methyl-1H-azepin-3-yl)phenol], the “Lowest dose effective” value is on record as 1.0 (n = 3) mg/kg.

For the origin of these results see US20040029905A1, “Use of weak opioids and mixed opioid agonists/antagonists for treatment of urinary incontinence” (Gruenenthal GmbH, priority 2000, published 2004).
